# Experimental data as given in patent US20240131027A1, “PHARMACEUTICAL COMPOSITION COMPRISING NOVEL SD911 COMPOUND AS ACTIVE INGREDIENT FOR PREVENTION OR TREATMENT OF TRANSPLANT REJECTION” (THE CATHOLIC UNIVERSITY OF KOREA INDUSTRY-ACADEMIC …, priority 2021, published 2024).
# Tests used:
# [1] = system: kidney transplantation rejection model; assay: Cell infiltration and kidney damage (H&E) in kidney transplantation rejection model; type: in vivo; details: 300 μg/mice, compared with the vehicle group, FIGS. 8A and 8B
# Protocol: In order to produce a kidney transplantation rejection model, peripheral blood mononuclear cells (PBMCs) derived from transplantation rejection patients (kidney transplantation rejection patients) were intravascularly injected at a cell concentration of 5×10^6/mice, and then after 3 weeks, engraftment of transplantation rejection patient cells in the blood was confirmed, and a kidney transplantation rejection model was constructed. As a control group, normal human PBMCs were injected (FIG. 6). At 3 weeks after PBMC administration to the kidney transplantation rejection model prepared in Example 4-1, the mice were treated with physiological saline (vehicle) and SD911 (300 μg/mice) and sacrificed at 4 weeks and then the kidneys of the mice were extracted.
# [2] = system: T cell subtypes (Th1, Th2, Th17, Treg); assay: T cell subtype analysis by flow cytometry of spleen immune cells in skin transplantation model; type: in vivo; details: 200 μg/mice, spleen after 5 days, compared to control group
# Excerpt: (§1) In order to confirm A therapeutic effect of SD911 of the present invention on transplantation rejection, an allogenic skin transplantation animal model was used. Specifically, as the allogenic skin transplantation animal model, the tail skins of male donor […] mice (Orient Bio Inc.) were exfoliated and transplanted onto the back skins of male recipient BALB/c mice (Orient Bio Inc.). One day before transplant, the recipient mice were divided into two groups, a control group (Saline group) administered intraperitoneally with physiological saline, and an experimental group (SD911 group) administered with SD911 at a concentration of 200 μg/mice.
# Some of the recipient mice that had undergone the skin transplant were humanely sacrificed after 5 days, the spleens were extracted, and immune cells were isolated from the spleens. In order to analyze T cell subtypes in the isolated immune cells, flow cytometry was performed, and to identify pro-inflammatory T cells, the number of CD4+, IFN+, IL4+ and IL17+ positive cells was analyzed. In addition, regulatory T cells (Treg) were identified as CD4+CD25+Foxp3+ positive cells.
# kidney organoids = assay: Flow cytometry of nephron marker double positive cells in cytokine-treated kidney organoids; type: cell-based, human; details: SD911 50 μg/mL; TNF-α and INFγ treated kidney organoids; FIGS. 5A to 5F
# Protocol: (§2) WTC-11 cells, standard normal human induced pluripotent stem cells (iPSC) were differentiated into kidney organoids and treated with IFNγ, a cytokine known to induce transplantation rejection to construct an in vitro rejection model increasing human leukocyte antigen (HLA). Thereafter, the constructed kidney organoids were treated with 50 μM of SD911.
# In the kidney organoids prepared in Example 3-1, when treated with the cytokines TNF-α and INFγ and when treated with SD911 at a concentration of 50 μg/mL, changes in cell patterns were analyzed by flow cytometry. Specifically, the patterns of nephron markers PODXL, LTL, ECAD and double positive cells in kidney organoids were analyzed.
# [3] = system: CD4+T (CD4+), subtype of human immune cells; assay: CD4 positive cell infiltration in renal tissue by immunohistochemical staining, kidney transplantation rejection model; type: in vivo; details: 300 μg/mice, group injected with PBMCs of patients with kidney transplantation rejection, FIGS. 9A and 9B
# Protocol: (§3) In order to produce a kidney transplantation rejection model, peripheral blood mononuclear cells (PBMCs) derived from transplantation rejection patients (kidney transplantation rejection patients) were intravascularly injected at a cell concentration of 5×10^6/mice, and then after 3 weeks, engraftment of transplantation rejection patient cells in the blood was confirmed, and a kidney transplantation rejection model was constructed. As a control group, normal human PBMCs were injected (FIG. 6).
# (§4) At 3 weeks after PBMC administration to the kidney transplantation rejection model prepared in Example 4-1, the mice were treated with physiological saline (vehicle) and SD911 (300 μg/mice) and sacrificed at 4 weeks and then the kidneys of the mice were extracted.
# Immunohistochemical staining was performed to confirm whether CD4+T (CD4+), subtype of human immune cells, has been infiltrated in the renal tissue extracted in Example 4-2. The extracted tissue was fixed with formalin, and then embedded in paraffin to generate slices with a thickness of 5 μm. In order to observe immune cells in the tissue, immunohistochemical analysis was performed by reacting with a human CD4 antibody on the slice slide.
# [4] = system: immune cells isolated from the spleens of normal C57/BL6 mice; assay: Suppression of SDF1-induced migration of spleen immune cells in trans wells; type: cell-based; details: SD911 20 μM; SDF1 20 ng/ml in lower compartment; FIGS. 1A and 1B
# Protocol: The present inventors screened a novel compound SD911 by using activity inhibition analysis of inflammatory cytokines in immune cells of a sphingosin 1-phosphate lyase (SPL) inhibitor, and tried to confirm an immune cell migration inhibitory effect of the screened SD911. Specifically, single cells (immune cells) were isolated from the spleens of normal C57/BL6 mice, and the isolated immune cells were cultured in […] trans wells (upper compartment). For migration of the cultured immune cells, stromal cell-derived factor 1 (SDF1) was treated at a concentration of 20 ng/ml to stimulate the lower compartment. The immune cells moved to the lower compartment by stromal cell-derived factor 1 (SDF1), and at this time, whether the migration was inhibited by SD911 was analyzed.
# [5] = system: human leukocyte antigen (HLA); assay: HLA inhibition in IFNγ-treated kidney organoids (in vitro rejection model); type: cell-based; details: 50 μM SD911; kidney organoids from WTC-11 iPSC treated with IFNγ; FIG. 4
# Protocol: as §2
# IL-17 = IL-17 positive cell infiltration in renal tissue by immunohistochemical staining, kidney transplantation rejection model; type: in vivo; details: 300 μg/mice, group injected with PBMCs of patients with kidney transplantation rejection, FIGS. 10A and 10B
# Protocol: as §3, §4
# Immunohistochemical staining was performed to confirm whether IL-17, an inflammatory cytokine, has been infiltrated into the renal tissue extracted in Example 4-2. The extracted tissue was fixed with formalin, and then embedded in paraffin to generate slices with a thickness of 5 μm. In order to observe immune cells in the tissue, immunohistochemical analysis was performed by reacting with a human IL-17 antibody on the slice slide.
# [6] = system: allogenic skin transplantation animal model; assay: Skin transplant viability in allogenic skin transplantation animal model; type: in vivo; details: 200 μg/mice
# Excerpt: as §1
# The skin changes of the control group or the experimental group (SD911 group) treated with SD911 at a concentration of 200 μg/mice were observed daily, and the viability was calculated by calculating the rejection when scab formation or skin atrophy of 70% or more occurred on the transplanted skin. A drug administration schedule was illustrated in FIG. 2A.
structure (smiles),measurement,setting,value
"C[C@@H]1CN(c2nnc(Oc3ccccc3)c3ccccc23)CCN1c1ccc(C#N)cn1 [SD911, 6-((R)-2-methyl-4-(1-phenoxyphthalazin-4-yl)piperazin-1-yl)pyridine-3-carbonitrile]",kidney damage,[1],suppressed
same,human PBMC infiltration,[1]; glomerulus,suppressed
same,number of Th1 cells,[2]; FIG. 3A,significantly decreased
same,number of Th2 cells,[2]; FIG. 3B,significantly decreased
same,number of Th17 cells,[2]; FIG. 3C,significantly decreased
same,Treg (CD4+CD25+Foxp3+ positive cells),[2]; FIG. 3D,increased
same,"positive cell ratio of the nephron marker (PODXL, LTL, ECAD double positive cells)",kidney organoids,significantly decreased
same,infiltration of CD4-positive cells,[3],significantly reduced
same,migration of immune cells induced by SDF1,[4],blocked
same,HLA increased by IFNγ,[5],suppressed
same,infiltration of IL-17-positive cells,IL-17,significantly reduced
same,viability of the transplanted skin,"[6]; compared to control (Saline) group, FIG. 2B",significantly increased
same,survival time of the transplanted skin,"[6]; compared to control group, FIG. 2C",significantly increased
